Each structure is given as a SMILES string. Some results are limits rather than exact numbers.

Test [1] deals with NQO1 activity in Hepa1c1c7 cells. Description: NAD(P)H: quinone oxidoreductase-1 (NQO1) enzyme induction assay (in vitro). The class given is cell-based, mouse. The note with it: about 48 hr; for fold induction at 0.4 µM: Mus musculus, Hepa-1c1c7, NQO1 activity with 400 nM test compound as a ratio from the base without compound. The protocol:
The NQO1 assay was performed based on a previous report (Methods in Enzymology 2004; 382: 243-258). Hepa1c1c7 cells (mouse hepatocyte cell line, ATCC, cat. no. CRL-2026) were cultured in D-MEM medium containing 10% FBS and 1% penicillin/streptomycin (5% CO2, 37° C.), and seeded into 96-well plates (Corning REF. 353072) at 1×10^4 cells/well. A portion of the wells were prepared with medium only for background measurement without seeding cells. The next day, 400 nM of the test compound (0.004% of the final concentration in DMSO) dissolved in DMSO was added thereto, and the wells were incubated for about 48 hr. A well without adding the test compound was prepared for base activity assay in part. […] After the medium was removed, 50 μL of the cell lysate was added and incubated at 37° C. for 10 minutes, followed by shaking at room temperature for 10 minutes. 200 μL of reaction solution was added thereto, and allowed to stand for 5 minutes at room temperature. 50 μL of the stop solution was added thereto, and absorbance was measured at 610 nm on a SpectraMax PLUS384 (Molecular devices) or […] Pharma Biomedical). The test results were analyzed in Excel, and the NQO1 activity upon addition of 400 nM of test compound was calculated as a ratio from the base without the compound. NQO1 activity ratio when test compound is added=(absorbance when test compound is added-absorbance of medium only)/(absorbance without addition of compound-absorbance of medium only) [numerical formula 2] The results of each test compound in this test are shown in the following Table 2 (A:5<NQO1 activity ratio, B:3<NQO1 activity ratio≤5).

Test [2] deals with binding between Nrf2 and Keap1 (Homo sapiens (Human), UniProt Q14145). Briefly: FP assay (in vitro): inhibition of Nrf2-Keap1 binding by fluorescence polarization. The conditions noted are these: GST-fused human Keap1 (325-642) 20 nM, FITC-labeled Nrf2 peptide 10 nM, 2 hr at room temperature.
Chain of binding between Nrf2 and Keap1 (Q14145 325-624 limits assumed): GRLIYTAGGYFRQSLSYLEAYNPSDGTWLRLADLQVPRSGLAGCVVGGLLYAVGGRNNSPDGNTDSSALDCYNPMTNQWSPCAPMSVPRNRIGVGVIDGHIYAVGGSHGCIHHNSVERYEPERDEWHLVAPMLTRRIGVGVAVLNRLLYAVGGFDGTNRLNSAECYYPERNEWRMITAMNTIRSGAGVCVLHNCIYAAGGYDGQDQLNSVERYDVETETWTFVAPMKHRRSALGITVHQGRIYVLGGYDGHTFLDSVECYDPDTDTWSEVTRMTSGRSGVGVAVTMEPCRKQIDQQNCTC

On to `CC[C@@H]1CN(Cc2cc([C@@H](CC(=O)O)c3ccc4c(nnn4C)c3C)cc3ccsc23)C(C)c2nc(O)ccc2O1` (relative stereo) [Example 79, (3R)-3-(1,4-Dimethyl-1H-benzotriazol-5-yl)-3-(7-{[(2R,5R*)-2-ethyl-7-hydroxy-5-methyl-2,3-dihydropyrido[2,3-f][1,4]oxazepin-4(5H)-yl]methyl}-1-benzothiophen-5-yl)propanoic acid], for which the fold induction at 0.4 µM in test [1] is > 5. For the compound `CC[C@@H]1Cc2ncccc2S(=O)(=O)N(Cc2cc([C@@H](CC(=O)O)c3ccc4c(nnn4C)c3C)cc3c2CCC3)C1` (single isomer, unassigned) [Example 27, (3R)-3-(1,4-Dimethyl-1H-benzotriazol-5-yl)-3-(7-{[(4S*)-4-ethyl-1,1-dioxido-4,5-dihydropyrido[2,3-f][1,2]thiazepin-2(3H)-yl]methyl}-2,3-dihydro-1H-inden-5-yl)propanoic acid], in test [1], the fold induction at 0.4 µM is > 5. Moreover, the IC50 in test [2] was ≤ 0.01 µM.

With `CC[C@@H]1Cc2ccccc2S(=O)(=O)N(Cc2cc([C@@H](CC(=O)O)c3ccc4c(nnn4C)c3C)cc3c2CCC3)C1` (single isomer, unassigned) [Example 28, (3R)-3-(1,4-Dimethyl-1H-benzotriazol-5-yl)-3-(7-{[(4S*)-4-ethyl-1,1-dioxido-4,5-dihydro-1,2-benzothiazepin-2(3H)-yl]methyl}-2,3-dihydro-1H-inden-5-yl)propanoic acid], the fold induction at 0.4 µM in test [1] was > 5. For the same compound, the half-maximal inhibitory concentration (IC50) in test [2] is ≤ 0.01 µM. The corresponding values for `CC[C@@H]1CN(Cc2cc(C(CC(=O)O)c3cc(Cl)c4c(nnn4C)c3C)cc3c2CCC3)[C@@H](C)c2ncccc2O1` (single isomer, unassigned) [Example 71, (3R*)-3-(7-Chloro-1,4-dimethyl-1H-benzotriazol-5-yl)-3-(7-{[(2R,5S)-2-ethyl-5-methyl-2,3-dihydropyrido[2,3-f][1,4]oxazepin-4(5H)-yl]methyl}-2,3-dihydro-1H-inden-5-yl)propanoic acid] are > 5 and ≤ 0.01 µM. In the same order, the values of `CCC1c2ncccc2O[C@H](CC)CN1Cc1cc([C@H](CC(=O)O)c2ccc3c(nnn3C)c2C)cc2ccsc12` (single isomer, unassigned) [Example 76, (3S)-3-(7-{[(2R,5R*)-2,5-Diethyl-2,3-dihydropyrido[2,3-f][1,4]oxazepin-4(5H)-yl]methyl}-1-benzothiophen-5-yl)-3-(1,4-dimethyl-1H-benzotriazol-5-yl)propanoic acid] are > 5 and ≤ 0.01 µM. In the same order, the values of `CC[C@@H]1CN(Cc2cc([C@@H](CC(=O)O)c3ccc4c(nnn4C)c3C)cc3ccsc23)C(C)c2nc(O)ccc2O1` (single isomer, unassigned) [Example 78, (3R)-3-(1,4-Dimethyl-1H-benzotriazol-5-yl)-3-(7-{[(2R,5S*)-2-ethyl-7-hydroxy-5-methyl-2,3-dihydropyrido[2,3-f][1,4]oxazepin-4(5H)-yl]methyl}-1-benzothiophen-5-yl)propanoic acid] are > 5 and 0.01 to 0.03 µM. Turning to `CC[C@@H]1CN(Cc2cc([C@@H](CC(=O)O)c3cnc4c(nnn4C)c3C)cc3ccsc23)C(C)c2nc(O)ccc2O1` (single isomer, unassigned) [Example 81, (3R)-3-(3,7-Dimethyl-3H-[1,2,3]triazolo[4,5-b]pyridin-6-yl)-3-(7-{[(2R,5S*)-2-ethyl-7-hydroxy-5-methyl-2,3-dihydropyrido[2,3-f][1,4]oxazepin-4(5H)-yl]methyl}-1-benzothiophen-5-yl)propanoic acid], the fold induction at 0.4 µM in test [1] fell in the range of 3 to 5. In the case of `Cc1c([C@H](CC(=O)O)c2cc(CN3C[C@@H](C4CC4)Oc4ccc(O)nc4C3C)c3sccc3c2)ccc2c1nnn2C` (single isomer, unassigned) [Example 83, (3R)-3-(7-{[(2R,5S*)-2-Cyclopropyl-7-hydroxy-5-methyl-2,3-dihydropyrido[2,3-f][1,4]oxazepin-4(5H)-yl]methyl}-1-benzothiophen-5-yl)-3-(1,4-dimethyl-1H-benzotriazol-5-yl)propanoic acid], the fold induction at 0.4 µM in test [1] was > 5. In test [2], the IC50 was 0.03 to 0.1 µM.

In the case of `Cc1c([C@H](CC(=O)O)c2cc(CN3C[C@@H](C4CC4)Oc4ccc(O)nc4C3C)c3sccc3c2)cnc2c1nnn2C` (single isomer, unassigned) [Example 85, (3R)-3-(7-{[(2R,5R*)-2-Cyclopropyl-7-hydroxy-5-methyl-2,3-dihydropyrido[2,3-f][1,4]oxazepin-4(5H)-yl]methyl}-1-benzothiophen-5-yl)-3-(3,7-dimethyl-3H-[1,2,3]triazolo[4,5-b]pyridin-6-yl)propanoic acid], the fold induction at 0.4 µM in test [1] was > 5. The IC50 in test [2] was 0.01 to 0.03 µM.

With `Cc1c([C@H](CC(=O)O)c2cc(CN3C[C@@H](C4CC4)Oc4ccc(O)nc4C3C)c3sccc3c2)cnc2c1nnn2C` (single isomer, unassigned) [Example 86, (3R)-3-(7-{[(2R,5S*)-2-Cyclopropyl-7-hydroxy-5-methyl-2,3-dihydropyrido[2,3-f][1,4]oxazepin-4(5H)-yl]methyl}-1-benzothiophen-5-yl)-3-(3,7-dimethyl-3H-[1,2,3]triazolo[4,5-b]pyridin-6-yl)propanoic acid], the activity ratio result in test [1] (NQO1 activity with 400 nM test compound as a ratio from the base without compound) is given as “A (5<NQO1 activity ratio)”. This compound gave an IC50 in test [2] of 0.03 to 0.1 µM. As for `Cc1c([C@H](CC(=O)O)c2cc(CN3CC4(CC4)Oc4ccc(O)nc4C3C)c3sccc3c2)ccc2c1nnn2C` (single isomer, unassigned) [Example 87, (3R)-3-(1,4-Dimethyl-1H-benzotriazol-5-yl)-3-(7-{[(5′S*)-7′-hydroxy-5′-methyl-3′H-spiro[cyclopropane-1,2′-pyrido[2,3-f][1,4]oxazepin]-4′(5′H)-yl]methyl}-1-benzothiophen-5-yl)propanoic acid], in test [1], the fold induction at 0.4 µM is > 5. Regarding `Cc1c([C@H](CC(=O)O)c2cc(CN3CC4(CC4)Oc4ccc(O)nc4[C@H]3C)c3sccc3c2)ccc2c1nnn2C` (single isomer, unassigned) [Example 88, (3R)-3-(1,4-Dimethyl-1H-benzotriazol-5-yl)-3-(7-{[(5′R*)-7′-hydroxy-5′-methyl-3′H-spiro[cyclopropane-1,2′-pyrido[2,3-f][1,4]oxazepin]-4′(5′H)-yl]methyl}-1-benzothiophen-5-yl)propanoic acid], in test [1], the fold induction at 0.4 µM was > 5. The compound further displayed an IC50 in test [2] of 0.01 to 0.03 µM. The corresponding values for `CC[C@@H]1CN(Cc2cc(C(CC(=O)O)c3cc(O)c4c(nnn4C)c3C)cc3ccsc23)[C@@H](C)c2ncccc2O1` (single isomer, unassigned) [Example 93, (3S*)-3-(7-{[(2R,5S)-2-Ethyl-5-methyl-2,3-dihydropyrido[2,3-f][1,4]oxazepin-4(5H)-yl]methyl}-1-benzothiophen-5-yl)-3-(7-hydroxy-1,4-dimethyl-1H-benzotriazol-5-yl)propanoic acid] are > 5 and ≤ 0.01 µM.

On to `CC[C@@H]1CN(Cc2cc([C@@H](CC(=O)O)c3cc(O)c4c(nnn4C)c3C)cc3ccsc23)[C@@H](C)c2ncccc2O1` (single isomer, unassigned) [Example 94, (3R*)-3-(7-{[(2R,5S)-2-Ethyl-5-methyl-2,3-dihydropyrido[2,3-f][1,4]oxazepin-4(5H)-yl]methyl}-1-benzothiophen-5-yl)-3-(7-hydroxy-1,4-dimethyl-1H-benzotriazol-5-yl)propanoic acid], for which the fold induction at 0.4 µM in test [1] is > 5. Also, in test [2], the IC50 is ≤ 0.01 µM. In the same order, the values of `CC[C@@H]1CN(Cc2cc(C(CC(=O)O)c3ccc4c(nnn4C)c3C)cc3ccsc23)S(=O)(=O)c2cc(Cl)cnc2O1` (stereo partly drawn) [Example 1, 3-(7-{[(4R)-8-Chloro-4-ethyl-1,1-dioxido-3,4-dihydro-2H-pyrido[2,3-b][1,4,5]oxathiazepin-2-yl]methyl}-1-benzothiophen-5-yl)-3-(1,4-dimethyl-1H-benzotriazol-5-yl)propanoic acid] are > 5 and 0.03 to 0.1 µM.

Consider `CC[C@@H]1CN(Cc2cc(C(CC(=O)O)c3ccc4c(nnn4C)c3Cl)cc3ccsc23)S(=O)(=O)c2cc(Cl)cnc2O1` (stereo partly drawn) [Example 2, 3-(7-{[(4R)-8-Chloro-4-ethyl-1,1-dioxido-3,4-dihydro-2H-pyrido[2,3-b][1,4,5]oxathiazepin-2-yl]methyl}-1-benzothiophen-5-yl)-3-(4-chloro-1-methyl-1H-benzotriazol-5-yl)propanoic acid], for which, in test [1], the fold induction at 0.4 µM is > 5. The compound further displayed an IC50 in test [2] of 0.01 to 0.03 µM. In the same order, the values of `CC[C@@H]1CN(Cc2cc(C(CC(=O)O)c3ccc4c(nnn4C)c3C)cc3c2CCC3)S(=O)(=O)c2cc(Cl)cnc2O1` (stereo partly drawn) [Example 3, 3-(7-{[(4R)-8-Chloro-4-ethyl-1,1-dioxido-3,4-dihydro-2H-pyrido[2,3-b][1,4,5]oxathiazepin-2-yl]methyl}-2,3-dihydro-1H-inden-5-yl)-3-(1,4-dimethyl-1H-benzotriazol-5-yl)propanoic acid] are > 5 and ≤ 0.01 µM.

(Values after patent publication US20250092064A1, “BENZOTRIAZOLE COMPOUND” (DAIICHI SANKYO COMPANY, LIMITED, priority 2022, published 2025).)
